Reference: PubChem BioAssay AID248 (DTP/NCI, 2004)
Toxic doses and inconclusive results are not listed.

System: L1210 leukemia ip in BDF1 mice, survival T/C
Experiment: NCI In Vivo Anticancer Drug Screen. Data for tumor model L1210 Leukemia (intraperitoneal) in B6D2F1 (BDF1) mice
Conditions: higher = longer survival
Outline: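 Each compound was tested against a transplantable tumor grown in mice. The endpoint was survival, with treated animals benchmarked against vehicle controls as a simple ratio.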

[1] = endpoint: mean survival time, dose: 75.0 mg/kg/injection, schedule: Q01DX001 (ip), vehicle: saline
[2] = endpoint: mean survival time, dose: 150.0 mg/kg/injection, schedule: Q01DX001 (ip), vehicle: saline
[3] = endpoint: mean survival time, dose: 50.0 mg/kg/injection, schedule: Q01DX001 (ip), vehicle: saline
[4] = endpoint: mean survival time, dose: 100.0 mg/kg/injection, schedule: Q01DX001 (ip), vehicle: saline
[5] = endpoint: mean survival time, dose: 200.0 mg/kg/injection, schedule: Q01DX001 (ip), vehicle: saline
[6] = endpoint: mean survival time, dose: 400.0 mg/kg/injection, schedule: Q01DX001 (ip), vehicle: saline
[7] = endpoint: mean survival time, dose: 100.0 mg/kg/injection, schedule: Q01DX009 (ip), vehicle: saline with Tween-80
[8] = endpoint: mean survival time, dose: 100.0 mg/kg/injection, schedule: Q04DX003 (ip), vehicle: saline with Tween-80
[9] = endpoint: mean survival time, dose: 200.0 mg/kg/injection, schedule: Q01DX009 (ip), vehicle: saline with Tween-80
[10] = endpoint: mean survival time, dose: 200.0 mg/kg/injection, schedule: Q04DX003 (ip), vehicle: saline with Tween-80
[11] = endpoint: mean survival time, dose: 400.0 mg/kg/injection, schedule: Q04DX003 (ip), vehicle: saline with Tween-80
[12] = endpoint: mean survival time, dose: 200.0 mg/kg/injection, schedule: Q01DX009 (ip), vehicle: saline
[13] = endpoint: mean survival time, dose: 25.0 mg/kg/injection, schedule: Q01DX009 (ip), vehicle: saline
[14] = endpoint: mean survival time, dose: 100.0 mg/kg/injection, schedule: Q01DX009 (ip), vehicle: saline
[15] = endpoint: mean survival time, dose: 100.0 mg/kg/injection, schedule: Q04DX002 (ip), vehicle: saline with Tween-80
[16] = endpoint: mean survival time, dose: 300.0 mg/kg/injection, schedule: Q01DX001 (ip), vehicle: saline

SMILES: CCOC(=O)C1C(=O)CC2c3nc4ccccc4cc3CN2C1=O (stereo unspecified)
- T/C [1]: 97 % of control
- T/C [2]: 114 % of control

SMILES: NN=C(c1ccccc1)c1ccccc1
- T/C (endpoint: mean survival time, dose: 1.3 mg/kg/injection, schedule: Q01DX009 (ip), vehicle: Klucel (hydroxypropylcellulose) (HPC)): 103 % of control
- T/C (endpoint: mean survival time, dose: 2.61 mg/kg/injection, schedule: Q01DX009 (ip), vehicle: Klucel (hydroxypropylcellulose) (HPC)): 94 % of control
- T/C (endpoint: mean survival time, dose: 5.23 mg/kg/injection, schedule: Q01DX009 (ip), vehicle: Klucel (hydroxypropylcellulose) (HPC)): 94 % of control
- T/C (endpoint: mean survival time, dose: 10.46 mg/kg/injection, schedule: Q01DX009 (ip), vehicle: Klucel (hydroxypropylcellulose) (HPC)): 86 % of control
- T/C (endpoint: mean survival time, dose: 25.0 mg/kg/injection, schedule: Q04DX003 (ip), vehicle: Klucel (hydroxypropylcellulose) (HPC)): 97 % of control
- T/C (endpoint: mean survival time, dose: 41.87 mg/kg/injection, schedule: Q01DX009 (ip), vehicle: Klucel (hydroxypropylcellulose) (HPC)): 91 % of control
- T/C [3]: 96 % of control
- T/C (endpoint: mean survival time, dose: 50.0 mg/kg/injection, schedule: Q04DX003 (ip), vehicle: Klucel (hydroxypropylcellulose) (HPC)): 92 % of control
- T/C (endpoint: mean survival time, dose: 83.7 mg/kg/injection, schedule: Q01DX009 (ip), vehicle: Klucel (hydroxypropylcellulose) (HPC)): 98 % of control
- T/C [4]: 96 % of control
- T/C (endpoint: mean survival time, dose: 100.0 mg/kg/injection, schedule: Q04DX003 (ip), vehicle: Klucel (hydroxypropylcellulose) (HPC)): 111 % of control
- T/C [5]: 100 % of control
- T/C [6]: 96 % of control

SMILES: O=C1CC(c2ccc(Cl)cc2)NC(c2ccc(Cl)cc2)C1 (stereo unspecified)
- T/C [7]: 101 % of control
- T/C [8]: 93 % of control
- T/C [9]: 101 % of control
- T/C [10]: 96 % of control
- T/C (endpoint: mean survival time, dose: 400.0 mg/kg/injection, schedule: Q01DX009 (ip), vehicle: saline with Tween-80): 103 % of control
- T/C [11]: 98 % of control

SMILES: O=c1n[n+]([O-])ccn1C1OC(CO)C(O)C1O (stereo unspecified)
- T/C (endpoint: mean survival time, dose: 100.0 mg/kg/injection, schedule: Q01DX005 (ip), vehicle: saline): 111 % of control
- T/C (endpoint: mean survival time, dose: 200.0 mg/kg/injection, schedule: Q01DX005 (ip), vehicle: saline): 111 % of control
- T/C [12]: 121 % of control
- T/C (endpoint: median survival time, dose: 200.0 mg/kg/injection, schedule: Q01DX009 (ip), vehicle: saline): 176 % of control
- T/C (endpoint: median survival time, dose: 250.0 mg/kg/injection, schedule: Q01DX009 (ip), vehicle: saline): 280 % of control
- T/C (endpoint: median survival time, dose: 300.0 mg/kg/injection, schedule: Q01DX009 (ip), vehicle: saline): 352 % of control
- T/C (endpoint: median survival time, dose: 350.0 mg/kg/injection, schedule: Q01DX009 (ip), vehicle: saline): 97 % of control
- T/C (endpoint: median survival time, dose: 400.0 mg/kg/injection, schedule: Q01DX009 (ip), vehicle: saline): 97 % of control
- T/C (endpoint: median survival time, dose: 450.0 mg/kg/injection, schedule: Q01DX009 (ip), vehicle: saline): 152 % of control

SMILES: CCOC(=O)CCC(NC(=O)c1ccc(N(C)Cc2cnc3nc(NC(C)=O)cc(NC(C)=O)c3n2)cc1)C(=O)OCC (stereo unspecified)
- T/C (endpoint: mean survival time, dose: 100.0 mg/kg/injection, schedule: Q01DX001 (ip), vehicle: other): 102 % of control
- T/C (endpoint: mean survival time, dose: 200.0 mg/kg/injection, schedule: Q01DX001 (ip), vehicle: other): 93 % of control
- T/C (endpoint: mean survival time, dose: 400.0 mg/kg/injection, schedule: Q01DX001 (ip), vehicle: other): 95 % of control

SMILES: CCOP(N)(=S)OCC
- T/C [1]: 102 % of control
- T/C [2]: 102 % of control

SMILES: O=C1OC(=O)C2C3C=CC(O3)C12 (stereo unspecified)
- T/C (endpoint: mean survival time, dose: 6.25 mg/kg/injection, schedule: Q01DX009 (ip), vehicle: saline): 97 % of control
- T/C (endpoint: mean survival time, dose: 10.0 mg/kg/injection, schedule: Q04DX003 (ip), vehicle: saline with Tween-80): 96 % of control
- T/C (endpoint: mean survival time, dose: 12.5 mg/kg/injection, schedule: Q01DX009 (ip), vehicle: saline with Tween-80): 111 % of control
- T/C (endpoint: mean survival time, dose: 12.5 mg/kg/injection, schedule: Q01DX009 (ip), vehicle: saline): 96 % of control
- T/C (endpoint: mean survival time, dose: 20.0 mg/kg/injection, schedule: Q04DX003 (ip), vehicle: saline with Tween-80): 100 % of control
- T/C (endpoint: mean survival time, dose: 25.0 mg/kg/injection, schedule: Q01DX009 (ip), vehicle: saline with Tween-80): 108 % of control
- T/C [13]: 95 % of control
- T/C (endpoint: mean survival time, dose: 40.0 mg/kg/injection, schedule: Q04DX003 (ip), vehicle: saline with Tween-80): 94 % of control
- T/C (endpoint: mean survival time, dose: 50.0 mg/kg/injection, schedule: Q01DX009 (ip), vehicle: saline with Tween-80): 95 % of control

SMILES: CC(C)CC(C)OC(=O)CCl (stereo unspecified)
- T/C (endpoint: mean survival time, dose: 100.0 mg/kg/injection, schedule: Q04DX003 (ip), vehicle: saline): 107 % of control
- T/C (endpoint: mean survival time, dose: 200.0 mg/kg/injection, schedule: Q04DX003 (ip), vehicle: saline): 105 % of control
- T/C (endpoint: mean survival time, dose: 400.0 mg/kg/injection, schedule: Q04DX003 (ip), vehicle: saline): 88 % of control

SMILES: NC(Cc1cc(Cl)c(O)c(Cl)c1)C(=O)O (stereo unspecified)
- T/C [14]: 103 % of control
- T/C (endpoint: mean survival time, dose: 150.0 mg/kg/injection, schedule: Q01DX009 (ip), vehicle: saline): 108 % of control
- T/C [12]: 103 % of control

SMILES: CC(=O)NCCCc1c(C)nc(NC(C)=O)[nH]c1=O
- T/C (endpoint: mean survival time, dose: 25.0 mg/kg/injection, schedule: Q01DX001 (ip), vehicle: saline): 94 % of control
- T/C [3]: 108 % of control
- T/C [4]: 102 % of control

SMILES: CCC(=O)Nc1cccc(OC(=O)N(C)C)c1
- T/C [8]: 100 % of control
- T/C [10]: 98 % of control
- T/C [11]: 100 % of control

SMILES: NCCCNCCO
- T/C [4]: 102 % of control
- T/C [5]: 111 % of control
- T/C [6]: 105 % of control

SMILES: c1ccc(CNCC2c3[nH]c4ccccc4c3CN2C2CCCCC2)cc1 (stereo unspecified)
- T/C (endpoint: mean survival time, dose: 75.0 mg/kg/injection, schedule: Q01DX001 (ip), vehicle: carboxymethylcellulose (CMC)): 102 % of control
- T/C (endpoint: mean survival time, dose: 150.0 mg/kg/injection, schedule: Q01DX001 (ip), vehicle: carboxymethylcellulose (CMC)): 90 % of control
- T/C (endpoint: mean survival time, dose: 300.0 mg/kg/injection, schedule: Q01DX001 (ip), vehicle: carboxymethylcellulose (CMC)): 91 % of control

SMILES: CCOC(=O)C(Cc1c[nH]c2cc(N(CCO)CCO)ccc12)(NC(C)=O)C(=O)OCC
- T/C [4]: 97 % of control
- T/C [5]: 101 % of control
- T/C [6]: 98 % of control

SMILES: O=S(=O)(CCCl)Cc1ccccc1
- T/C [15]: 115 % of control
- T/C (endpoint: mean survival time, dose: 200.0 mg/kg/injection, schedule: Q04DX002 (ip), vehicle: saline with Tween-80): 94 % of control

SMILES: Cc1ccc(C2CCCCC2OS(C)(=O)=O)cc1 (stereo unspecified)
- T/C (endpoint: mean survival time, dose: 100.0 mg/kg/injection, schedule: Q01DX001 (ip), vehicle: carboxymethylcellulose (CMC)): 95 % of control
- T/C (endpoint: mean survival time, dose: 200.0 mg/kg/injection, schedule: Q01DX001 (ip), vehicle: carboxymethylcellulose (CMC)): 92 % of control
- T/C (endpoint: mean survival time, dose: 400.0 mg/kg/injection, schedule: Q01DX001 (ip), vehicle: carboxymethylcellulose (CMC)): 97 % of control

SMILES: O=[N+]([O-])C1C2CCC(C2)C1[N+](=O)[O-] (stereo unspecified)
- T/C [1]: 91 % of control
- T/C [2]: 100 % of control
- T/C [16]: 87 % of control

SMILES: NC(=O)c1c(/N=C/c2cc(Br)ccc2O)sc2c1CCCC2
- T/C (endpoint: mean survival time, dose: 25.0 mg/kg/injection, schedule: Q04DX002 (ip), vehicle: saline with Tween-80): 87 % of control
- T/C (endpoint: mean survival time, dose: 50.0 mg/kg/injection, schedule: Q04DX002 (ip), vehicle: saline with Tween-80): 87 % of control
- T/C [15]: 93 % of control
- T/C (endpoint: mean survival time, dose: 400.0 mg/kg/injection, schedule: Q04DX002 (ip), vehicle: saline with Tween-80): 87 % of control

SMILES: CCOC(OCC)C(=O)NNC(C)C
- T/C [13]: 95 % of control
- T/C (endpoint: mean survival time, dose: 50.0 mg/kg/injection, schedule: Q01DX009 (ip), vehicle: saline): 97 % of control
- T/C [14]: 108 % of control

SMILES: COC(=O)CS(=O)(=O)C/C(=N\Nc1ccccc1)c1ccccc1
- T/C [1]: 104 % of control
- T/C [2]: 92 % of control
- T/C [16]: 98 % of control

SMILES: Oc1cc(O)c2c(c1)OC(c1ccc(O)c(O)c1)C(OC1(c3cc(O)c(O)c(O)c3)Oc3cc(O)cc(O)c3C(O)C1O)C2 (stereo unspecified)
- T/C [7]: 95 % of control
- T/C [9]: 97 % of control

SMILES: CN(C)CC1CCC(CN(C)C)C1=O (stereo unspecified)
- T/C (endpoint: mean survival time, dose: 9.38 mg/kg/injection, schedule: Q01DX001 (ip), vehicle: other): 106 % of control
- T/C (endpoint: mean survival time, dose: 9.38 mg/kg/injection, schedule: Q01DX001 (ip), vehicle: saline): 104 % of control
- T/C (endpoint: mean survival time, dose: 18.75 mg/kg/injection, schedule: Q01DX001 (ip), vehicle: other): 101 % of control
- T/C (endpoint: mean survival time, dose: 18.75 mg/kg/injection, schedule: Q01DX001 (ip), vehicle: saline): 103 % of control
- T/C (endpoint: mean survival time, dose: 37.5 mg/kg/injection, schedule: Q01DX001 (ip), vehicle: other): 115 % of control

SMILES: CC1=CC23C(COC(=O)C24CO4)C(C(=O)O)=CC3C1C (stereo unspecified)
- T/C (endpoint: mean survival time, dose: 10.0 mg/kg/injection, schedule: Q01DX001 (ip), vehicle: saline): 96 % of control
